Laboratory results: the NIST ThermoML archive (doi:10.1016/j.fluid.2006.11.005)

Test: xn = mol fraction of the nth substance listed
Settings: 101.33 kPa, Liquid

ClC(Cl)Cl [trichloromethane] + CCO
mass density [kg/m3]
Settings	288.15 K	293.15 K	298.15 K	303.15 K	308.15 K	313.15 K
x2 = 0	1498.08	1488.64	1479.15	1469.61	1460.03	1450.41
x2 = 0.0485	1472.17	1462.84	1453.46	1444.03	1434.55	1425.03
x2 = 0.0997	1444.69	1435.55	1426.28	1416.99	1407.64	1398.25
x2 = 0.1993	1389.44	1380.64	1371.77	1362.83	1353.83	1344.78
x2 = 0.2999	1331.01	1322.64	1314.2	1305.7	1297.12	1288.5
x2 = 0.4002	1269.36	1261.46	1253.5	1245.47	1237.37	1229.18
x2 = 0.4984	1204.89	1197.52	1190.08	1182.57	1174.99	1167.34
x2 = 0.5504	1168.93	1161.84	1154.69	1147.44	1140.19	1132.84
x2 = 0.6001	1133.49	1126.69	1119.83	1112.9	1105.9	1098.85
x2 = 0.6949	1062.09	1055.88	1049.61	1043.28	1036.89	1030.44
x2 = 0.794	981.537	976.02	970.455	964.839	959.165	953.436
x2 = 0.8503	933.183	927.998	922.772	917.5	912.175	906.798
x2 = 0.9001	888.356	883.494	878.595	873.653	868.659	863.612
